Broadly, the Kd is a measure of binding affinity in units of concentration. The low end stands for higher affinity, the high end for lower affinity.

This assay addresses Gal-3 (Homo sapiens, UniProt P17931). Put plainly: Fluorescence anisotropy assay, inhibition of galectin / fluorescein tagged saccharide probe interaction. It is filed as binding. How it is done:
The affinity of Example 1-59 for galectins were determined by a fluorescence anisotropy assay where the compound was used as an inhibitor of the interaction between galectin and a fluorescein tagged saccharide probe as described Sörme, P., Kahl-Knutsson, B., Huflejt, M., Nilsson, U. J., and Leffler H. (2004) Fluorescence polarization as an analytical tool to evaluate galectin-ligand interactions. Anal. Biochem. 334: 36-47, (Sarme et al., 2004)
(In general: Fluorescence polarisation rises when a labelled molecule tumbles more slowly, as on binding a larger partner.)

Molecules are shown by their SMILES.

Sequence of Gal-3 (P17931 whole entry, species assumed): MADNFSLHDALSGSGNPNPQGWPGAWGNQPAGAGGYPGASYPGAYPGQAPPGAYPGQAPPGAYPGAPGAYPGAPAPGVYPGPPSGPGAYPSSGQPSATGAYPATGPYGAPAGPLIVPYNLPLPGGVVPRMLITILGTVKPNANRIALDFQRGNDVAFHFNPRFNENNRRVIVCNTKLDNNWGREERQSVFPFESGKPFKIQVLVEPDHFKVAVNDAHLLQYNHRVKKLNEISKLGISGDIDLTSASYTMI

`Cc1nc([C@@H]2OC(CO)[C@H](O)C(n3cc(-c4cc(F)c(F)c(F)c4)cn3)C2O)n(-c2cc(Cl)ccc2C(F)(F)F)n1` (stereo in doubt) [Example 3, 5-Chloro-1-{5-{3-deoxy-3-[4-(3,4,5-trifluorophenyl)-1H-1,2-pyrazol-1-yl]-β-D-galactopyranosyl}-3-methyl-1H-1,2,4-triazol-1-yl}-2-(trifluoromethyl)benzene]: the Kd came to 9 nM.
Consider `Cc1nc([C@@H]2OC(CO)[C@H](O)C(n3cc(-c4cc(F)c(F)c(F)c4)cn3)C2O)n(-c2cc(Br)cnc2C(F)(F)F)n1` (stereo in doubt) [Example 25, 5-Bromo-3-{5-{3-deoxy-3-[4-(3,4,5-trifluorophenyl)-1H-1,2-pyrazol-1-yl]-β-D-galactopyranosyl}-3-methyl-1H-1,2,4-triazol-1-yl}-2-(trifluoromethyl)pyridine], for which the equilibrium dissociation constant (Kd) came out at 11 nM.
The compound `Cc1nc([C@@H]2OC(CO)[C@H](O)C(n3cc(-c4cc(F)c(Cl)c(F)c4)cn3)C2O)n(-c2cc(Cl)cnc2C(F)(F)F)n1` (stereo in doubt) [Example 28, 3-{5-{3-[4-(4-Chloro-3,5-difluorophenyl)-1H-1,2-pyrazol-1-yl]-3-deoxy-β-D-galactopyranosyl}-3-methyl-1H-1,2,4-triazol-1-yl}-5-chloro-2-(trifluoromethyl)pyridine] came in with a Kd of 15 nM.
In the case of `Cc1nc([C@@H]2OC(CO)[C@H](O)C(n3cc(-c4cccc(Cl)c4)cn3)C2O)n(-c2cc(Cl)ccc2C(F)(F)F)n1` (stereo in doubt) [Example 58, 1-{5-{3-[4-(3-Chlorophenyl)-1H-1,2-pyrazol-1-yl]-3-deoxy-β-D-galactopyranosyl}-3-methyl-1H-1,2,4-triazol-1-yl}-5-chloro-2-(trifluoromethyl)benzene], the affinity, expressed as Kd, was 97 nM. Against the preceding compound, the Kd is about 6.5-fold higher.
`Cc1nc([C@@H]2OC(CO)[C@H](O)C(n3cc(-c4cc(F)c(F)c(F)c4)cn3)C2O)n(-c2cc3sc(C)nc3cc2C#N)n1` (stereo in doubt) [Example 44, 5-Cyano-6-{5-{3-deoxy-3-[4-(3,4,5-trifluorophenyl)-1H-1,2-pyrazol-1-yl]-β-D-galactopyranosyl}-3-methyl-1H-1,2,4-triazol-1-yl}-2-methylbenzothiazole] yielded an equilibrium dissociation constant (Kd) of 17 nM.
On to `Cc1nc([C@@H]2OC(CO)[C@H](O)C(n3cc(-c4cc(F)c(F)c(F)c4)cn3)C2O)n(-c2cc(C#N)c3nc(C)sc3c2)n1` (stereo in doubt) [Example 42, 4-Cyano-6-{5-{3-deoxy-3-[4-(3,4,5-trifluorophenyl)-1H-1,2-pyrazol-1-yl]-β-D-galactopyranosyl}-3-methyl-1H-1,2,4-triazol-1-yl}-2-methylbenzothiazole], for which the affinity, expressed as Kd, was 12 nM.
Next, `Cc1nc([C@@H]2OC(CO)[C@H](O)C(n3cc(-c4cc(F)c(F)c(F)c4)c(Cc4ccccc4)n3)C2O)n(-c2cc(Cl)ccc2C(F)(F)F)n1` (stereo in doubt) [Example 50, 1-{5-{3-[3-Benzyl-4-(3,4,5-trifluorophenyl)-1H-1,2-pyrazol-1-yl]-3-deoxy-β-D-galactopyranosyl}-3-methyl-1H-1,2,4-triazol-1-yl}-5-chloro-2-(trifluoromethyl)benzene]: 36 nM; `Cc1nc([C@@H]2OC(CO)[C@H](O)C(n3cc(-c4cc(F)c(Cl)c(F)c4)c(C)n3)C2O)n(-c2cc(Cl)ccc2C(F)(F)F)n1` (stereo in doubt) [Example 12, 1-{5-{3-[4-(4-Chloro-3,5-difluorophenyl)-3-methyl-1H-1,2-pyrazol-1-yl]-3-deoxy-β-D-galactopyranosyl}-3-methyl-1H-1,2,4-triazol-1-yl}-5-chloro-2-(trifluoromethyl)benzene]: 11 nM; `Cc1nc([C@@H]2OC(CO)[C@H](O)C(n3cc(-c4cc(F)c(F)c(F)c4)c(-c4cccc(F)c4)n3)C2O)n(-c2cc(Cl)ccc2C(F)(F)F)n1` (stereo in doubt) [Example 54, 5-Chloro-1-{5-{3-deoxy-3-[4-(3,4,5-trifluorophenyl)-3-(3-fluorophenyl)-1H-1,2-pyrazol-1-yl]-β-D-galactopyranosyl}-3-methyl-1H-1,2,4-triazol-1-yl}-2-(trifluoromethyl)benzene]: 240 nM.
The value for `Cc1nc([C@@H]2OC(CO)[C@H](O)C(n3cc(-c4cc(F)c(F)c(F)c4)cn3)C2O)n(-c2ccc3nc(C)sc3c2Cl)n1` (stereo in doubt) [Example 40, 7-Chloro-6-{5-{3-deoxy-3-[4-(3,4,5-trifluorophenyl)-1H-1,2-pyrazol-1-yl]-β-D-galactopyranosyl}-3-methyl-1H-1,2,4-triazol-1-yl}-2-methylbenzothiazole] was 260 nM.
Consider `Cc1nc([C@@H]2OC(CO)[C@H](O)C(n3cc(-c4cc(F)c(F)c(F)c4)cn3)C2O)n(-c2cncc(Br)c2)n1` (stereo in doubt) [Example 19, 5-Bromo-3-{5-{3-deoxy-3-[4-(3,4,5-trifluorophenyl)-1H-1,2-pyrazol-1-yl]-β-D-galactopyranosyl}-3-methyl-1H-1,2,4-triazol-1-yl}pyridine], for which binding was characterised by a dissociation constant (Kd) of 25 nM.
The value for `Cc1nc([C@@H]2OC(CO)[C@H](O)C(n3cc(-c4cc(F)c(F)c(F)c4)c(C#N)n3)C2O)n(-c2cc(Cl)ccc2C(F)(F)F)n1` (stereo in doubt) [Example 51, 5-Chloro-1-{5-{3-[3-cyano-4-(3,4,5-trifluorophenyl)-1H-1,2-pyrazol-1-yl]-3-deoxy-β-D-galactopyranosyl}-3-methyl-1H-1,2,4-triazol-1-yl}-2-(trifluoromethyl)benzene] was 15 nM.
Next, `Cc1nc([C@@H]2OC(CO)[C@H](O)C(n3cc(-c4cc(F)c(F)c(F)c4)cn3)C2O)n(-c2cc(C#N)ccc2C(F)(F)F)n1` (stereo in doubt) [Example 46, 5-Cyano-1-{5-{3-deoxy-3-[4-(3,4,5-trifluorophenyl)-1H-1,2-pyrazol-1-yl]-β-D-galactopyranosyl}-3-methyl-1H-1,2,4-triazol-1-yl}-2-(trifluoromethyl)benzene]: 19 nM.
In turn, `COc1ccccc1-c1nn(C2C(O)[C@H](c3nc(C)nn3-c3cc(Cl)ccc3C(F)(F)F)OC(CO)[C@@H]2O)cc1-c1cc(F)c(F)c(F)c1` (stereo in doubt) [Example 52, 5-Chloro-1-{5-{3-deoxy-3-[4-(3,4,5-trifluorophenyl)-3-(2-methoxyphenyl)-1H-1,2-pyrazol-1-yl]-β-D-galactopyranosyl}-3-methyl-1H-1,2,4-triazol-1-yl}-2-(trifluoromethyl)benzene] returned an equilibrium dissociation constant (Kd) of 20 nM.
Next, `Cc1nc([C@@H]2OC(CO)[C@H](O)C(n3cc(-c4cc(F)c(F)c(F)c4)cn3)C2O)n(-c2cc(F)c3nc(C)sc3c2)n1` (stereo in doubt) [Example 39, 6-{5-{3-Deoxy-3-[4-(3,4,5-trifluorophenyl)-1H-1,2-pyrazol-1-yl]-β-D-galactopyranosyl}-3-methyl-1H-1,2,4-triazol-1-yl}-4-fluoro-2-methylbenzothiazole]: 10 nM.
Next, `Cc1nc([C@@H]2OC(CO)[C@H](O)C(n3cc(-c4cc(F)c(F)c(F)c4)cn3)C2O)n(-c2cc(Cl)ccc2C#N)n1` (stereo in doubt) [Example 27, 5-Chloro-2-cyano-1-{5-{3-deoxy-3-[4-(3,4,5-trifluorophenyl)-1H-1,2-pyrazol-1-yl]-β-D-galactopyranosyl}-3-methyl-1H-1,2,4-triazol-1-yl}benzene]: 37 nM.
Take `Cc1nc([C@@H]2OC(CO)[C@H](O)C(n3cc(-c4cc(F)c(Cl)c(F)c4)c(C(N)=O)n3)C2O)n(-c2cc(Cl)ccc2C(F)(F)F)n1` (stereo in doubt) [Example 32, 1-{5-{3-[3-Aminocarbonyl-4-(4-chloro-3,5-difluorophenyl)-1H-1,2-pyrazol-1-yl]-3-deoxy-β-D-galactopyranosyl}-3-methyl-1H-1,2,4-triazol-1-yl}-5-chloro-2-(trifluoromethyl)benzene]: the affinity, expressed as Kd, was 23 nM.
The value for `CCOC(=O)c1nn(C2C(O)[C@H](c3nc(C)nn3-c3cc(Cl)ccc3C(F)(F)F)OC(CO)[C@@H]2O)cc1-c1cc(F)c(Cl)c(F)c1` (stereo in doubt) [Example 29, 1-{5-{3-[4-(4-Chloro-3,5-difluorophenyl)-3-ethoxycarbonyl-1H-1,2-pyrazol-1-yl]-3-deoxy-β-D-galactopyranosyl}-3-methyl-1H-1,2,4-triazol-1-yl}-5-chloro-2-(trifluoromethyl)benzene] was 28 nM.
Regarding `Cc1nc([C@@H]2OC(CO)[C@H](O)C(n3cc(-c4cc(F)c(F)c(F)c4)c(-c4ccccc4)n3)C2O)n(-c2cc(Cl)ccc2C(F)(F)F)n1` (stereo in doubt) [Example 47, 5-Chloro-1-{5-{3-deoxy-3-[4-(3,4,5-trifluorophenyl)-3-phenyl-1H-1,2-pyrazol-1-yl]-β-D-galactopyranosyl}-3-methyl-1H-1,2,4-triazol-1-yl}-2-(trifluoromethyl)benzene], the dissociation constant Kd stood at 80 nM.
The value for `Cc1nc([C@@H]2OC(CO)[C@H](O)C(n3cc(-c4cc(F)c(F)c(F)c4)cn3)C2O)n(-c2cnc3nc(C)sc3c2)n1` (stereo in doubt) [Example 45, 6-{5-{3-Deoxy-3-[4-(3,4,5-trifluorophenyl)-1H-1,2-pyrazol-1-yl]-β-D-galactopyranosyl}-3-methyl-1H-1,2,4-triazol-1-yl}-2-methylthiazolo[4,5-b]pyridine] was 35 nM; that for `Cc1nnc([C@@H]2OC(CO)[C@H](O)C(n3cc(-c4cc(F)c(Cl)c(F)c4)cn3)C2O)n1-c1cc(Cl)ccc1C(F)(F)F` (single isomer, unassigned) [Example 10, 1-{3-{3-[4-(4-Chloro-3,5-difluorophenyl)-1H-1,2-pyrazol-1-yl]-3-deoxy-β-D-galactopyranosyl}-5-methyl-4H-1,2,4-triazol-4-yl}-5-chloro-2-(trifluoromethyl)benzene] was 370 nM.

The values above are taken from patent US20240309038A1, “NOVEL GALACTOSIDE INHIBITOR OF GALECTINS” (GALECTO BIOTECH AB, priority 2020, published 2024).
